From patent publication EP0194571A1, “Heterocyclic disulfides, process for their preparation and pharmaceutical preparations containing them” (HOECHST AKTIENGESELLSCHAFT, priority 1985, dated 1986)

Columns and labels:
[1] = test system: zelluläre Immunantwort (DTH-Reaktion) gegen Schafserythrozyten; assay: Delayed type hypersensitivity (DTH) reaction against sheep erythrocytes, foot swelling in mice; assay type: in vivo, NMRI-Mäuse; conditions: relative to maximal activation by compound of Beispiel 8 = 100 %; Dosis 100 mg/kg, 1 x i.p. Tag 0
[2] = test system: Maus-Peritonealmakrophagen; assay: Activation of mononuclear phagocytes: release of lysosomal hydrolases (exocytosis) by peritoneal macrophages from treated mice; assay type: in vivo, NMRI-Mäuse; conditions: for N-Ac-Glu: N-Acetyl-ß-D-Glucosaminidase in culture supernatant; for ß-Gal: ß-Galactosidase in culture supernatant; for ß-Glu: ß-Glucuronidase in culture supernatant
Experimental: Hier wurde der Einfluß der nach Ausführungsbeispiel 8 erhaltenen Prüfsubstanz auf die Stimulation von Peritonealmakrophagen bei 6- 8 Wochen alten NMRI-Mäusen untersucht. Mäuseweibchen erhielten auf parenteralem oder oralem Wege die Prüfsubstanz in einer Dosis von 25 mg/kg, 50 mg/kg, 100 mg/kg und 200 mg/kg. Der Kontrollgruppe wurde gepufferte Kochsalzlösung verabreicht. Drei Tage nach den Injektionen wurden die Mäuse getötet, und es wurden die Peritonealmakrophagen der Tiere auf ihren Aktivierungszustand hin untersucht. Als Maß der Makrophagenaktivierung wurde zum einen die Sekretion der lyosomalen Enzyme (ß-Galactosidase, ß-Glucuronidase, N-Acetyl-ß-D-Glucosaminidase) bestimmt. Auf der anderen Seite konnte in vergleichbaren Makrophagenkulturen die Pinozytose durch die Aufnahme von kolloidalem Gold (^19^8Au) - wie sie dem Fachmann bekannt ist - untersucht werden. Die Höhe des oxidativen Stoffwechsels bei Makrophagen gilt als ein weiteres Maß für ihren Aktivierungszustand. Gemessen wird diese Aktivität unter Zuhilfenahme des Biolumaten durch Bestimmung der Chemolumineszenz.
Zu diesem Zweck wurden entweder in Petrischalen von 30 mm Durchmesser 3 x 10^6 Makrophagen mit 1 ml TC 199-Kulturmedium oder aber 10^6 Makrophagen mit 100 µl in Rundbogen-Polyäthylen-Röhrchen (zur Bestimmung der Chemolumineszenz) bei 5 % G02 und 37°C kultiviert.
Nach einstündiger Bebrütung wurden die Kulturen gewaschen, um schwimmende Zellen zu entfernen. Die Chemolumineszenz (Röhrchenkultur) wurde dann direkt bestimmt, während die Petrischalen erneut 24 Stunden bei 37°C bebrütet wurden und danach die Enzym- und Pinozytoseaktivität in den Kulturen bestimmt wurde. Es wurden die nachstehenden Ergebnisse erzielt.
Aus der Tabelle 3 ist zu entnehmen, daß Makrophagen von Kontrollmäusen nur geringe Mengen an lysosomalen Enzymen (ß-Glucuronidase, ß-Galactosidase, N-Acetyl-ß-D-Glucosaminidase) in den Kulturüberstand abgeben. Mononukleare Phagozyten von Mäusen, die parenteral oder oral mit der Prüfsubstanz 72 Stunden behandelt wurde, sezernieren die o.a. sauren Hydrolasen (ß-Glu, ß-Gal, N-Ac-Glu) deutlich mehr und weisen damit eine Dosiswirkungskurve auf, die bei allen gemessenen Enzymen eine Überlegenheit gegenüber den Kontrollen erkennen läßt. Es ist ersichtlich, daß die Prüfsubstanz eine stimulierende Wirkung auf die Makrophagenaktivität besitzt und zur Erhöhung der Enzymfreisetzung beiträgt.
Wie im Experiment 2 beschrieben, wurden NMRI-Mäuse mit den erfindungsgemäßen Verbindungen behandelt.
Als Test zur Erfassung der Immunstimulation wurde die Funktion der Makrophagen (Chemolumineszenz und Enzymaktivität) überprüft.
Tabelle 8 zeigt die relative Wirksamkeit der Prüfsubstanzen bezogen auf die Verbindung aus Beispiel 8, deren maximale Aktivierung (Differenz zwischen Kontrolle und Stimulation) 100 % entspricht. Der Tabelle ist zu entnehmen, daß im Vergleich zu Makrophagen aus unbehandelten Tieren, diese Zellen auch durch alle Prüfsubstanzen in ihrer Chemolumineszenzreaktion stark stimuliert und in ihrem Gehalt an lysosomalen Enzymen deutlich erhöht waren.

B16-Melanom = assay: Tumour defence against B16 melanoma (lung metastases after removal of primary tumour), survival time; assay type: in vivo, C57B1/6 Mäusen; conditions: control 26 Tagen
Experimental: Bei weiblichen C57B1/6 Mäusen (10 Tiere/Gruppe) mit einem Gewicht von 18 - 20 g wurde mit 2 x 10^5 lebenden B16-Melanomzellen ein Primärtumorwachstum induziert. Nach Ausprägung einer bestimmten Tumorgröße (0.65 cm im Durchmesser) wurde der Primärtumor entfernt. Die unbehandelten Tiere starben dann an Metastasen in der Lunge. Nach der Tumorinduktion wurden die Tiere an den Tagen 3, 5, 7, 9, 11, und 13 nach Amputation des Primärtumors mit 50, 100 und 200 mg/kg der nach Beispiel 8 erhaltenen Prüfsubstanz intraperitoneal behandelt. Aus der Absterberate nach Amputation des Primärtumors durch die Entwicklung von Lungenmetastasen lassen sich entsprechend die mittleren ffberlebenszeiten berechnen. Danach sterben die Tiere der Kontrollgruppe zu 50 % nach 26 Tagen. Die mit der Prüfsubstanz behandelten Gruppen zeigten (vgl. Tabelle 10) mit den entsprechenden Dosierungen eine signifikante Erhöhung der mittleren Überlebenszeit auf 43, 40 und 35 Lage.

Candida albicans = assay: Resistance against Candida albicans infection, prophylactic treatment, survival time; assay type: in vivo, Balb/c-Mäuse; conditions: 2 x 60 mg/kg/Tag intraperitoneal over 4 days, i.v. infection 24 h later with 5 x 10^5 CFU/Maus, control 9,7 Tagen
Experimental: Balb/c-Mäuse wurden über 4 Tage in einer Dosierung von 2 x 60 mg/kg/Tag intraperitoneal mit der Prüfsubstanz (Verbindung nach Ausführungsbeispiel 8) behandelt. 24 Stunden nach der letzten Gabe der Prüfsubstanz werden diese Tiere und die Kontrolltiere, denen physiologische Kochsalzlösung in gleichen Volumina und Zeitabständen verabreicht worden war, mit Candida albicans intravenös infiziert (5 x 10^5 CFU/Maus). Aus der Absterberate nach der Infektion lassen sich entsprechend die mittleren Überlebenszeiten berechnen. Die Tiere der Kontrollgruppe sterben zu 50 % nach 9,7 Tagen, die mit der Prüfsubstanz behandelte Gruppe zeigte eine mittlere Überlebenszeit von 16,1 Tagen. In dem gewählten Applikationsschema mit den entsprechenden Dosierungen (prophylaktische Verabreichung) induziert die Prüfsubstanz eine signifikante Erhöhung der Resistenz der Balb/c-Maus gegen Candida albicans.
Wie in Experiment 3a beschrieben, wurden Balb/c-Mäuse mit den erfindungsgemäßen Verbindungen behandelt.
Wie Tabelle 9 zeigt, steigt die mittlere Überlebenszeit der Mäuse nach C. albicans Infektion, verglichen mit einer unbehandelten Kontrollgruppe, signifikant an.

In the case of `Cc1nc(SSc2nc(C)c(CC(=O)O)s2)sc1CC(=O)O` [Beispiel 8, Bis-(5-Carboxymethyl-4-methyl-thiazol-2-yl)-disulfid], the “DTH-Reaktion (SRBC)” value [1] is reported as 100%, the N-Ac-Glu ([2]; 1 x 25 mg/kg i.p.) is reported as 2786 mU/ml and the N-Ac-Glu ([2]; 1 x 25 mg/kg p.o.) is reported as 1947 mU/ml. For the same compound, the N-Ac-Glu ([2]; 1 x 50 mg/kg i.p.) was 3315 mU/ml, the N-Ac-Glu ([2]; 1 x 50 mg/kg p.o.) was 2862 mU/ml and the N-Ac-Glu ([2]; 1 x 100 mg/kg i.p.) was 4305 mU/ml. The N-Ac-Glu ([2]; 1 x 100 mg/kg p.o.) was 3676 mU/ml, the N-Ac-Glu ([2]; 1 x 200 mg/kg i.p.) was 6548 mU/ml and the N-Ac-Glu ([2]; 1 x 200 mg/kg p.o.) was 5621 mU/ml. For the same compound, the “Makrophagenaktivität Exozytose” value ([2]; lysosomal enzyme activity, relative to maximal activation by compound of Beispiel 8 = 100 %, 100 mg/kg i.p.) was 100%, the ß-Gal ([2]; 1 x 25 mg/kg i.p.) was 2584 mU/ml and the ß-Gal ([2]; 1 x 25 mg/kg p.o.) was 4917 mU/ml. It also gave a ß-Gal ([2]; 1 x 50 mg/kg i.p.) of 11058 mU/ml, a ß-Gal ([2]; 1 x 50 mg/kg p.o.) of 9179 mU/ml and a ß-Gal ([2]; 1 x 100 mg/kg i.p.) of 17596 mU/ml. The ß-Gal ([2]; 1 x 100 mg/kg p.o.) was 13195 mU/ml, the ß-Gal ([2]; 1 x 200 mg/kg i.p.) was 22351 mU/ml and the ß-Gal ([2]; 1 x 200 mg/kg p.o.) was 17357 mU/ml. The ß-Glu ([2]; 1 x 25 mg/kg i.p.) was 1001 mU/ml, the ß-Glu ([2]; 1 x 25 mg/kg p.o.) was 897 mU/ml and the ß-Glu ([2]; 1 x 50 mg/kg i.p.) was 1370 mU/ml. For the same compound, the ß-Glu ([2]; 1 x 50 mg/kg p.o.) was 1133 mU/ml, the ß-Glu ([2]; 1 x 100 mg/kg i.p.) was 1791 mU/ml and the ß-Glu ([2]; 1 x 100 mg/kg p.o.) was 1593 mU/ml. The ß-Glu ([2]; 1 x 200 mg/kg i.p.) was 2136 mU/ml, the ß-Glu ([2]; 1 x 200 mg/kg p.o.) was 1886 mU/ml and the “mittlere Überlebenszeit” value (B16-Melanom; 50 mg/kg intraperitoneal on days 3, 5, 7, 9, 11, 13 after amputation of primary tumour) was 43 days. For the same compound, the “mittlere Überlebenszeit” value (B16-Melanom; 100 mg/kg intraperitoneal on days 3, 5, 7, 9, 11, 13 after amputation of primary tumour) was 40 days, the “mittlere Überlebenszeit” value (B16-Melanom; 200 mg/kg intraperitoneal on days 3, 5, 7, 9, 11, 13 after amputation of primary tumour) was 35 days and the “mittlere Überlebenszeit” value (Candida albicans) was 16,1 Tagen.
